Data on 1 compound can be found in patent US8785421B1, “Use of vitamin D in dairy mastitis treatment” (The United States of America as represented by the …, priority 2011, dated 2014).

Each structure is given as a SMILES string.

One experiment concerns S. uberis. As to the kind of experiment: Experimental S. uberis intramammary infection (mastitis) treated by intramammary infusion after each milking. The experiment is classed as in vivo, cows. The conditions noted are these: for reduction in bacterial load: 100 μg in 10-ml FBS after each milking, vs FBS sham control. As to the method:
Seven of the animals were treated after each milking with 100 μg of 25(OH)D3 in 10-ml fetal bovine serum (FBS), the other seven were sham treated with 10-ml FBS only. […] The lower bacterial load in the 25(OH)D3 treated animals and therefore a likely reduction of pyrogens explains the reduction in fever seen in the treated group. The level of bovine serum albumin (BSA) in the milk is used as an indicator of changes in the mammary vascular permeability in the gland and typically increases with an acute infection. […] Fewer bacteria in the treated group (FIG. 1) leads to less tissue damage (FIG. 3) and leads to less pyrogens going systemic (FIG. 2). Also, after the fourth day of the infection two cows (out of 6) in the 25D3 had no infection, whereas, all six were infected at this time point in the control treated group.

The test system of another experiment is Cyp24A1. As to the kind of experiment: Cyp24A1 gene expression in milk cells after intramammary infusion into an infected mammary quarter. The format is in vivo. The conditions noted are these: single 100 μg infusion into infected mammary quarter of two cows; compared to cells obtained prior to infusion.
Another experiment deals with Pseudomonas. As to the kind of experiment: Mastitis-infected cow with chronic Pseudomonas infection treated by intramammary infusion. The format is in vivo. The conditions noted are these: 100 ug infusions twice a day in the infected gland; after 2 treatments; from thousands of bacteria per ml; detection limit 100 cfu/ml; FIG. 4. As to the method:
After weeks of various conventional treatment the cow was treated with 25(OH)D3 as described in Example 1, with 100 ug infusions twice a day in the infected gland. The treatment of this animal with 25(OH)D3 caused the bacterial load to go from thousands of bacteria per ml to at or below our detection limit of 100 cfu/ml after 2 treatments (FIG. 4).

Turning to `C=C1CC[C@H](O)C/C1=C/C=C1\CCC[C@]2(C)[C@@H]([C@H](C)CCCC(C)(C)O)CC[C@@H]12` [25(OH)D3, 25-hydroxy vitamin D3], the “reduction in bacterial load” value is 2-4 log with S. uberis (day 2 of the experiment); 1.5-2 log with S. uberis (days 4 and 5 post infection). Besides, the “cows with no infection” value with S. uberis (after the fourth day of the infection, all six control cows were infected) was “two”. In the experiment on S. uberis (indicator of mammary vascular permeability, treated vs control, FIG. 3), the “level of bovine serum albumin (BSA) in the milk” value is recorded as “not statistically significant”. In addition, the “bacterial counts in infected glands” value in the experiment with S. uberis (repeated measures analysis, significant difference (p<0.05) at day 2 AM and day 2 PM, FIG. 1) was “significantly (p<0.05) reduced”. The rectal temperatures result with S. uberis (treated vs control cows at two time points (p<0.05), FIG. 2) is reported as “significantly lower”. In addition, the “gene expression of Cyp24A1” value in the experiment with Cyp24A1 was “increased”. In the experiment on Pseudomonas, this compound gave a bacterial load of at most 100 cfu/ml.
